Results reported in patent US10258583B2, “Extended release liquid compositions of guanfacine” (SUN PHARMACEUTICAL INDUSTRIES LIMITED, priority 2014, dated 2019).

Tests used:
[1] = pH dependent degradation profile - solution state stability; type: physicochemical
From the text: Guanfacine, particularly guanfacine hydrochloride, is found to degrade at high pH values. […] One of the major impurity of guanfacine is 2,6-dichlorophenyl acetic acid. [table]

[2] = Osmolality measurements (Osmomat 030-D); type: physicochemical; conditions: samples of composition prepared as per Example 13
From the text: The term “osmolality,” as used herein, means the number of moles of any water-soluble compound per kg of the carrier. In the present invention, the osmolality may be measured according to known methods, such as using a Vapor pressure Osmometer, a Colloid Osmometer, or a Freezing Point Depression Osmometer such as Osmomat® 030-D or Osmomat® 3000, in particular by a Freezing Point Depression Osmometer. In the present invention, pharmaceutically acceptable carrier has an osmolality of about 1 osmol/kg or more than about 1 osmol/kg of the pharmaceutically acceptable carrier.
The term “osmolality ratio,” as used herein, means the ratio of osmolality of the external phase to the osmolality of the internal phase. […]
Xylitol, microcrystalline cellulose-sodium carboxymethyl cellulose, xanthan gum, strawberry flavor, sucralose, citric acid, methyl paraben, propyl paraben and colloidal silicon dioxide, purified water were mixed as per Example 13. This suspension was then filtered and diluted with purified water, and the osmolality of the external phase was measured using Osmomat 030-D.
Various solutions having various concentrations of sodium chloride were prepared as per Examples (A)-(D). The osmolalities of these solutions were measured using Osmomat 030-D.
Sodium chloride was dissolved in purified water as per Examples A-D. The osmolality of these solutions were measured using Osmomat 030-D.

[3] = cited from earlier work

- % Assay ([1]; pH 1.2, 0 hours): 101.2%
- % Assay ([1]; pH 1.2, 1 hour): 101.2%
- % Assay ([1]; pH 1.2, 4 hours): 101.2%
- % Assay ([1]; pH 1.2, 8 hours): 101.1%
- % Assay ([1]; pH 1.2, 16 hours): 101.6%
- % Assay ([1]; pH 1.2, 24 hours): 101.4%
- % Assay ([1]; pH 2.2, 0 hours): 100.3%
- % Assay ([1]; pH 2.2, 1 hour): 100.5%
- % Assay ([1]; pH 2.2, 4 hours): 100.4%
- % Assay ([1]; pH 2.2, 8 hours): 100.4%
- % Assay ([1]; pH 2.2, 16 hours): 100.3%
- % Assay ([1]; pH 2.2, 24 hours): 100.2%
- % Assay ([1]; pH 4.5, 0 hours): 99.4%
- % Assay ([1]; pH 4.5, 1 hour): 99.0%
- % Assay ([1]; pH 4.5, 4 hours): 98.7%
- % Assay ([1]; pH 4.5, 8 hours): 98.9%
- % Assay ([1]; pH 4.5, 16 hours): 98.7%
- % Assay ([1]; pH 4.5, 24 hours): 98.5%
- % Assay ([1]; pH 6.8, 0 hours): 99.5%
- % Assay ([1]; pH 6.8, 1 hour): 99.0%
- % Assay ([1]; pH 6.8, 4 hours): 97.2%
- % Assay ([1]; pH 6.8, 8 hours): 93.7%
- % Assay ([1]; pH 6.8, 16 hours): 86.3%
- % Assay ([1]; pH 6.8, 24 hours): 79.9%
- % Assay ([1]; pH 7.5, 0 hours): 100.9%
- % Assay ([1]; pH 7.5, 1 hour): 99.9%
- % Assay ([1]; pH 7.5, 4 hours): 97.1%
- % Assay ([1]; pH 7.5, 8 hours): 92.2%
- % Assay ([1]; pH 7.5, 16 hours, listed as guanfacine, monohydrochloride): 84%
- % Assay ([1]; pH 7.5, 16 hours, monohydrochloride): 84.0%
- % Assay ([1]; pH 7.5, 24 hours): 77.5%
- Osmolality [2]: 0.006 OSMOL/Kg
Structure (SMILES): Cl.N=C(N)NC(=O)Cc1c(Cl)cccc1Cl [Guanfacine hydrochloride, N-amidino-2-(2,6-dichlorophenyl)-acetamide monohydrochloride]
- solubility in acetone ([3]; acetone): slightly soluble
- solubility in alcohol ([3]; alcohol): sparingly soluble
- solubility in water ([3]; water): approximately 1 mg/mL
